Test results taken from paper PMC7026418, “The kinase polypharmacology landscape of clinical PARP inhibitors” (Scientific Reports, 2020).
Like-named read-outs stand apart in the source and are kept apart here. One block for each compound: values may come before it.

Legend:
Test in all cases: biochemical
Set-up in all cases: DiscoveRx KINOMEscan active site-directed competition binding; percent of control kinase bound to immobilised ligand
[1] = biological target: PIM1 (Homo sapiens, UniProt P11309)
Chain of PIM1 (P11309 whole entry): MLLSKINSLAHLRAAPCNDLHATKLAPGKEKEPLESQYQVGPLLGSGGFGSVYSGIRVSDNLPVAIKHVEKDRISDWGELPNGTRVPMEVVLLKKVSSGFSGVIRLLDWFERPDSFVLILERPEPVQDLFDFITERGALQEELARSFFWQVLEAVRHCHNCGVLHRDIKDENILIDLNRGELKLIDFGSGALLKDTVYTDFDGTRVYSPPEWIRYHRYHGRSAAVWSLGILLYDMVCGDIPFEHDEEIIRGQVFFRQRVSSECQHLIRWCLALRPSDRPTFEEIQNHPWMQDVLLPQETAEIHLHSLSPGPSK

[2] = biological target: T1, ERK5 (Homo sapiens, UniProt Q13164)
T1 construct: gene MAPK7
T1 sequence (Q13164 whole entry): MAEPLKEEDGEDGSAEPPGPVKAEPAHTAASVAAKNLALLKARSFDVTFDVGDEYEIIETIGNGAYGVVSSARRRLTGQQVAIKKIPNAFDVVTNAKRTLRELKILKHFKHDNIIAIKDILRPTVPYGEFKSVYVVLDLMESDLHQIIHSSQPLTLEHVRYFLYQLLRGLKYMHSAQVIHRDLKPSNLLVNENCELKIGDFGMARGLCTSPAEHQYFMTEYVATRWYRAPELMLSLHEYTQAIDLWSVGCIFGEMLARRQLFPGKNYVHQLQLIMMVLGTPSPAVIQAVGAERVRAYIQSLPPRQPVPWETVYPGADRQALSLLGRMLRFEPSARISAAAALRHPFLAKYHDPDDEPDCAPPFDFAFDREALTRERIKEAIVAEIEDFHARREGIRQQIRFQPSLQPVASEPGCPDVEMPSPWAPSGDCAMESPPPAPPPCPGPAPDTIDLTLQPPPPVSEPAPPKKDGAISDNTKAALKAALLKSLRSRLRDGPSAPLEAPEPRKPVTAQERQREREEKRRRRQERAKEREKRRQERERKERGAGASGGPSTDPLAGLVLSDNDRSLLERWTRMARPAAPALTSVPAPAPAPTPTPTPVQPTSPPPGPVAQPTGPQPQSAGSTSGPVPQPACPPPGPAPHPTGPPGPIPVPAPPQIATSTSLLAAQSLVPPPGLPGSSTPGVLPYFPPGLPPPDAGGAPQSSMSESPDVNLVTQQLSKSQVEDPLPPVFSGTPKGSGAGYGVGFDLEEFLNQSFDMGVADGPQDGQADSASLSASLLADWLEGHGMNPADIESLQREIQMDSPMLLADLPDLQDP

[3] = biological target: T2, MST2 (Homo sapiens, UniProt Q13188)
T2 construct: gene STK3
T2 sequence (Q13188 1-491): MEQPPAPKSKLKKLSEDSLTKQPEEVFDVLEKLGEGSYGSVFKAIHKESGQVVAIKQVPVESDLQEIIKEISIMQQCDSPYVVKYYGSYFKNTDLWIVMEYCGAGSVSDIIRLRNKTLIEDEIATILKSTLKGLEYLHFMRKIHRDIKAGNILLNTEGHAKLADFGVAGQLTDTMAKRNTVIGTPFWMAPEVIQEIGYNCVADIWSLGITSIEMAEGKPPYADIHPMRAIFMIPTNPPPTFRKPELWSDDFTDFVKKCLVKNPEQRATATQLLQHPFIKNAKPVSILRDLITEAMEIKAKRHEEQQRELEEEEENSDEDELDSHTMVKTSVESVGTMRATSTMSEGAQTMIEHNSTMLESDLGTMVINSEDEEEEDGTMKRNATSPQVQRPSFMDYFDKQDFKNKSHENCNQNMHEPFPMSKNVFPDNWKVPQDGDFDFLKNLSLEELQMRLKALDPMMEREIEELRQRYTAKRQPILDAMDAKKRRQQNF

[4] = biological target: T3, PKAC-alpha (Homo sapiens, UniProt P17612)
T3 construct: gene PRKACA

[5] = biological target: T4, ULK3 (Homo sapiens, UniProt Q6PHR2)
T4 sequence (Q6PHR2 1-472): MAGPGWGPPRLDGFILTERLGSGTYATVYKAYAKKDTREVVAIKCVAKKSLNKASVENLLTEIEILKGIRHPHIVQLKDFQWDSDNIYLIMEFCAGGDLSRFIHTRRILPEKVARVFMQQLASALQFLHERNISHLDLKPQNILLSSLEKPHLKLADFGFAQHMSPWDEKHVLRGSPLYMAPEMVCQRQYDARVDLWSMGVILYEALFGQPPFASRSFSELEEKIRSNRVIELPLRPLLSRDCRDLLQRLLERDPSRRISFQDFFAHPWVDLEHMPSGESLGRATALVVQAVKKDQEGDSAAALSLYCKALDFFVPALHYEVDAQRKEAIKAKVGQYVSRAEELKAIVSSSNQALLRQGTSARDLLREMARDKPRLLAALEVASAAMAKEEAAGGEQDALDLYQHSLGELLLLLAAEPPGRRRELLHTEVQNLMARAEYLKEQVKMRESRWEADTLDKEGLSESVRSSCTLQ

[6] = biological target: PAK4 (Homo sapiens, UniProt O96013)
Chain of PAK4 (O96013 whole entry): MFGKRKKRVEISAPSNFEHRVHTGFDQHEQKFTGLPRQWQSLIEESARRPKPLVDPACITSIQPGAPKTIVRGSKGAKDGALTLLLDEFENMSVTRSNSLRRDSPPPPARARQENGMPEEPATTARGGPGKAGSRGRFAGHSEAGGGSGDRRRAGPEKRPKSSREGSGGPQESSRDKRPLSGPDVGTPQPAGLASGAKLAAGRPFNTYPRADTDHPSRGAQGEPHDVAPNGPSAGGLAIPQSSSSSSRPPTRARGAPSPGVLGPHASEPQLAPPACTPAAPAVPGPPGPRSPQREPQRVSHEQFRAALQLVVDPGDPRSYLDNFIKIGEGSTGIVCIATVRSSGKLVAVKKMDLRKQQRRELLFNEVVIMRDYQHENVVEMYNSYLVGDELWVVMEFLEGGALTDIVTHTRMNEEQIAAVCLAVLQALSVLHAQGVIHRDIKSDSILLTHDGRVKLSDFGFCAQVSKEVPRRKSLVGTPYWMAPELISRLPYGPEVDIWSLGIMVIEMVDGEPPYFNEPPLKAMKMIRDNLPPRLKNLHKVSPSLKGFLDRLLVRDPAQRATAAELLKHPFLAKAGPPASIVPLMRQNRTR

[7] = biological target: T5, FLT3 (Homo sapiens, UniProt P36888)
T5 sequence (P36888 1-993): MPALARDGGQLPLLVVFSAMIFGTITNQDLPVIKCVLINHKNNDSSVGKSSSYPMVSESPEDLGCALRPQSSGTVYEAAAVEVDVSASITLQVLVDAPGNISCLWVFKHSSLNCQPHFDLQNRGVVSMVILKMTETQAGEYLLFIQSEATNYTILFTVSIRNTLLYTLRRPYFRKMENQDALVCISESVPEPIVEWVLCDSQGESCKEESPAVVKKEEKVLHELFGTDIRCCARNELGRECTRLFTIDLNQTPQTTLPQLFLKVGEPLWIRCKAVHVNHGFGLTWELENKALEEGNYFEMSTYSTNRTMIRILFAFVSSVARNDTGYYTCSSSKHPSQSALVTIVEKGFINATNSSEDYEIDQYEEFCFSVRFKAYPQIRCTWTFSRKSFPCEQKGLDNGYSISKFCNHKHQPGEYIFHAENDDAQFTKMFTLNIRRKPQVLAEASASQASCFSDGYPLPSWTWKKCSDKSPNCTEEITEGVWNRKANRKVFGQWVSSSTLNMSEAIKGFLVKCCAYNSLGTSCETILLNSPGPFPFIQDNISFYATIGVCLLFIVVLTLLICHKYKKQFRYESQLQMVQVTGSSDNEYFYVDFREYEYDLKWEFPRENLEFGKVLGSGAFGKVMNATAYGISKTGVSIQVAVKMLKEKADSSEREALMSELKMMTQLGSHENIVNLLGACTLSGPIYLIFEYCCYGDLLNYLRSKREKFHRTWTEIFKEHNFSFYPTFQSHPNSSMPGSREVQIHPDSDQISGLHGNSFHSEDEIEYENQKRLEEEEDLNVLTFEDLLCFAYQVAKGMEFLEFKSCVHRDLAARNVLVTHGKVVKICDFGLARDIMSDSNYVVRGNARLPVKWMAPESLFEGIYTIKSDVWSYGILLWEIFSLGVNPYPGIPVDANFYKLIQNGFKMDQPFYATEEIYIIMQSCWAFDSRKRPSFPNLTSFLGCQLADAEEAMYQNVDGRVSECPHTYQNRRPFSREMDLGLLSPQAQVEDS

[8] = read-out: Olaparib / %Ctrl @ 10000nM
[9] = read-out: Talazoparib (BMN 673) / %Ctrl @ 10000nM
[10] = read-out: Rucaparib / %Ctrl @ 10000nM, binding competition, % of control
[11] = read-out: Niraparib (MK-4827) / %Ctrl @ 10000nM

percent of control binding at 10 µM [1, 8]: 96%
percent of control binding at 10 µM [2, 8]: 100%
percent of control binding at 10 µM [3, 8]: 96%
percent of control binding at 10 µM [4, 8]: 100%
percent of control binding at 10 µM [5, 8]: 80%
percent of control binding at 10 µM [6, 8]: 100%
percent of control binding at 10 µM [7, 8]: 100%
SMILES: O=C(c1cc(Cc2n[nH]c(=O)c3ccccc23)ccc1F)N1CCN(C(=O)C2CC2)CC1 [Olaparib]

percent of control binding at 10 µM [1, 9]: 95%
percent of control binding at 10 µM [2, 9]: 99%
percent of control binding at 10 µM [3, 9]: 100%
percent of control binding at 10 µM [4, 9]: 88%
percent of control binding at 10 µM [5, 9]: 84%
percent of control binding at 10 µM [6, 9]: 89%
percent of control binding at 10 µM [7, 9]: 94%
SMILES: Cn1ncnc1[C@H]1c2n[nH]c(=O)c3cc(F)cc(c23)N[C@@H]1c1ccc(F)cc1 [Talazoparib]

percent of control binding at 10 µM [1, 10]: 2.8%
percent of control binding at 10 µM [2, 10]: 100%
percent of control binding at 10 µM [3, 10]: 76%
percent of control binding at 10 µM [4, 10]: 100%
percent of control binding at 10 µM [5, 10]: 70%
percent of control binding at 10 µM [6, 10]: 80%
Rucaparib / %Ctrl @ 10000nM ([7]; binding competition, % of control): 98%
SMILES: CNCc1ccc(-c2[nH]c3cc(F)cc4c3c2CCNC4=O)cc1 [Rucaparib]

SMILES: NC(=O)c1cccc2cn(-c3ccc([C@@H]4CCCNC4)cc3)nc12 [Niraparib]
percent of control binding at 10 µM [1, 11]: 18%
percent of control binding at 10 µM [2, 11]: 100%
percent of control binding at 10 µM [3, 11]: 100%
percent of control binding at 10 µM [4, 11]: 86%
percent of control binding at 10 µM [5, 11]: 100%
percent of control binding at 10 µM [6, 11]: 88%
percent of control binding at 10 µM [7, 11]: 70%
